In PubChem BioAssay (NCI):
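Five concentrations, 48 hours, 96-well plates. Definition used: TGI = concentration required for complete inhibition of growth.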

How the values were obtained:
Assay in all cases: NCI-60 cell line screen, 48 h
SW-620 colon = test system: SW-620 colon
OVCAR-4 ovarian = test system: OVCAR-4 ovarian
SN12C renal = test system: SN12C renal
COLO 205 colon = test system: COLO 205 colon
MDA-MB-435 = test system: MDA-MB-435
UACC-62 melanoma = test system: UACC-62 melanoma
SF-268 CNS = test system: SF-268 CNS
A549 NSCLC = test system: A549 NSCLC
SK-MEL-28 melanoma = test system: SK-MEL-28 melanoma
HCC-2998 colon = test system: HCC-2998 colon
MDA-N = test system: MDA-N
NCI-H226 lung = test system: NCI-H226 lung
SF-295 CNS = test system: SF-295 CNS
SR leukemia = test system: SR leukemia
RPMI-8226 leukemia = test system: RPMI-8226 leukemia
UO-31 renal = test system: UO-31 renal
MCF7 breast = test system: MCF7 breast
IGROV1 ovarian = test system: IGROV1 ovarian
M14 melanoma = test system: M14 melanoma
NCI/ADR-RES ovarian = test system: NCI/ADR-RES ovarian
MDA-MB-231 breast = test system: MDA-MB-231 breast
NCI-H23 lung = test system: NCI-H23 lung
EKVX NSCLC = test system: EKVX NSCLC
SK-MEL-2 melanoma = test system: SK-MEL-2 melanoma
SK-OV-3 ovarian = test system: SK-OV-3 ovarian
HS 578T breast = test system: HS 578T breast
K-562 leukemia = test system: K-562 leukemia
HCT-15 colon = test system: HCT-15 colon
HOP-92 NSCLC = test system: HOP-92 NSCLC
CCRF-CEM leukemia = test system: CCRF-CEM leukemia
MOLT-4 leukemia = test system: MOLT-4 leukemia
BT-549 breast = test system: BT-549 breast
PC-3 prostate = test system: PC-3 prostate
HOP-62 NSCLC = test system: HOP-62 NSCLC
HL-60(TB) leukemia = test system: HL-60(TB) leukemia
RXF 393 renal = test system: RXF 393 renal
SNB-19 CNS = test system: SNB-19 CNS
NCI-H460 lung = test system: NCI-H460 lung
SF-539 CNS = test system: SF-539 CNS
T-47D breast = test system: T-47D breast
MALME-3M melanoma = test system: MALME-3M melanoma
KM12 colon = test system: KM12 colon
UACC-257 melanoma = test system: UACC-257 melanoma
786-0 renal = test system: 786-0 renal
CAKI-1 renal = test system: CAKI-1 renal
HT29 colon = test system: HT29 colon
U251 CNS = test system: U251 CNS
HCT-116 colon = test system: HCT-116 colon
TK-10 renal = test system: TK-10 renal
OVCAR-8 ovarian = test system: OVCAR-8 ovarian
SK-MEL-5 melanoma = test system: SK-MEL-5 melanoma
OVCAR-3 ovarian = test system: OVCAR-3 ovarian
LOX IMVI melanoma = test system: LOX IMVI melanoma
DU-145 prostate = test system: DU-145 prostate
A498 renal = test system: A498 renal
ACHN renal = test system: ACHN renal
NCI-H522 lung = test system: NCI-H522 lung
SNB-75 CNS = test system: SNB-75 CNS
OVCAR-5 ovarian = test system: OVCAR-5 ovarian

In the case of `OC(CCN1CCN(CCOC(c2ccc(F)cc2)c2ccc(F)cc2)CC1)c1ccccc1` (configuration not stated), the TGI (SW-620 colon) is reported as 57.4 µM, the TGI (OVCAR-4 ovarian) is reported as 39.4 µM and the TGI (SN12C renal) is reported as 29.4 µM. It also gave a TGI (COLO 205 colon) of 18.2 µM, a TGI (MDA-MB-435) of 38.9 µM and a TGI (UACC-62 melanoma) of 28.2 µM. For the same compound, the TGI (SF-268 CNS) was 31.2 µM, the TGI (A549 NSCLC) was 31 µM and the TGI (SK-MEL-28 melanoma) was 35.7 µM. It also gave a TGI (HCC-2998 colon) of 12.4 µM, a TGI (MDA-N) of 28.5 µM and a TGI (NCI-H226 lung) of 34.4 µM. It also gave a TGI (SF-295 CNS) of 34.6 µM, a TGI (SR leukemia) of 33.3 µM and a TGI (RPMI-8226 leukemia) of 43 µM. It also gave a TGI (UO-31 renal) of 11.2 µM, a TGI (MCF7 breast) of 35.6 µM and a TGI (IGROV1 ovarian) of 27.1 µM. For the same compound, the TGI (M14 melanoma) was 28 µM, the TGI (NCI/ADR-RES ovarian) was 26.8 µM and the TGI (MDA-MB-231 breast) was 28.8 µM. It also gave a TGI (NCI-H23 lung) of 31.1 µM, a TGI (EKVX NSCLC) of 26.1 µM and a TGI (SK-MEL-2 melanoma) of 30.1 µM. It also gave a TGI (SK-OV-3 ovarian) of 32.5 µM, a TGI (HS 578T breast) of 37.3 µM and a TGI (K-562 leukemia) of 26.4 µM. For the same compound, the TGI (HCT-15 colon) was 27.1 µM, the TGI (HOP-92 NSCLC) was 23.8 µM and the TGI (CCRF-CEM leukemia) was 45.6 µM. The TGI (MOLT-4 leukemia) was 29.1 µM, the TGI (BT-549 breast) was 27.1 µM and the TGI (PC-3 prostate) was 26.7 µM. The TGI (HOP-62 NSCLC) was 36.5 µM, the TGI (HL-60(TB) leukemia) was 37.3 µM and the TGI (RXF 393 renal) was 24.1 µM. It also gave a TGI (SNB-19 CNS) of 30.7 µM, a TGI (NCI-H460 lung) of 35.4 µM and a TGI (SF-539 CNS) of 25.6 µM. The TGI (T-47D breast) was 28.7 µM, the TGI (MALME-3M melanoma) was 26.8 µM and the TGI (KM12 colon) was 44 µM. The TGI (UACC-257 melanoma) was 42.5 µM, the TGI (786-0 renal) was 25.6 µM and the TGI (CAKI-1 renal) was 33.6 µM. It also gave a TGI (HT29 colon) of 21.6 µM, a TGI (U251 CNS) of 27.8 µM and a TGI (HCT-116 colon) of 26.2 µM. For the same compound, the TGI (TK-10 renal) was 29.2 µM, the TGI (OVCAR-8 ovarian) was 25.7 µM and the TGI (SK-MEL-5 melanoma) was 21 µM. The TGI (OVCAR-3 ovarian) was 31.4 µM, the TGI (LOX IMVI melanoma) was 28.2 µM and the TGI (DU-145 prostate) was 32.8 µM. For the same compound, the TGI (A498 renal) was 19.5 µM, the TGI (ACHN renal) was 25.8 µM and the TGI (NCI-H522 lung) was 28.1 µM. The TGI (SNB-75 CNS) was 27.5 µM and the TGI (OVCAR-5 ovarian) was 27.8 µM.

Compound `COC(=O)c1ccc(NCc2cc(O)c3ccccc3c2O)cc1` has a TGI (SW-620 colon) of 32.3 µM, a TGI (OVCAR-4 ovarian) of 25.9 µM and a TGI (SN12C renal) of 40 µM. For the same compound, the TGI (COLO 205 colon) was 25.4 µM, the TGI (MDA-MB-435) was 4.63 µM and the TGI (UACC-62 melanoma) was 10.3 µM. For the same compound, the TGI (SF-268 CNS) was > 73.1 µM, the TGI (A549 NSCLC) was 23.4 µM and the TGI (SK-MEL-28 melanoma) was 18.3 µM. For the same compound, the TGI (HCC-2998 colon) was 39.9 µM, the TGI (MDA-N) was 3.98 µM and the TGI (NCI-H226 lung) was 40 µM. The TGI (SF-295 CNS) was 19.9 µM, the TGI (SR leukemia) was 21.7 µM and the TGI (RPMI-8226 leukemia) was 15.1 µM. The TGI (UO-31 renal) was 26.7 µM, the TGI (MCF7 breast) was 21.3 µM and the TGI (IGROV1 ovarian) was 25.5 µM. It also gave a TGI (NCI/ADR-RES ovarian) of 94.3 µM, a TGI (MDA-MB-231 breast) of 6.02 µM and a TGI (NCI-H23 lung) of 30.3 µM. For the same compound, the TGI (EKVX NSCLC) was 48.7 µM, the TGI (SK-MEL-2 melanoma) was 43.2 µM and the TGI (SK-OV-3 ovarian) was 31.6 µM. The TGI (HS 578T breast) was 98.2 µM, the TGI (K-562 leukemia) was 6.97 µM and the TGI (HCT-15 colon) was 28.8 µM. It also gave a TGI (HOP-92 NSCLC) of 9.97 µM, a TGI (CCRF-CEM leukemia) of 16.3 µM and a TGI (MOLT-4 leukemia) of 9.73 µM. It also gave a TGI (BT-549 breast) of 30.7 µM, a TGI (PC-3 prostate) of 33.5 µM and a TGI (HOP-62 NSCLC) of 32.5 µM. For the same compound, the TGI (HL-60(TB) leukemia) was > 28.5 µM, the TGI (RXF 393 renal) was 48.9 µM and the TGI (SNB-19 CNS) was > 81.8 µM. For the same compound, the TGI (NCI-H460 lung) was 24.5 µM, the TGI (SF-539 CNS) was 28.6 µM and the TGI (T-47D breast) was 40.7 µM. For the same compound, the TGI (MALME-3M melanoma) was 5.95 µM, the TGI (KM12 colon) was > 50 µM and the TGI (UACC-257 melanoma) was 20.5 µM. It also gave a TGI (786-0 renal) of 46.5 µM, a TGI (CAKI-1 renal) of 13.4 µM and a TGI (HT29 colon) of 48.5 µM. It also gave a TGI (U251 CNS) of 40.1 µM, a TGI (HCT-116 colon) of 38.4 µM and a TGI (TK-10 renal) of 39.1 µM. For the same compound, the TGI (OVCAR-8 ovarian) was 93.4 µM, the TGI (SK-MEL-5 melanoma) was 3.15 µM and the TGI (OVCAR-3 ovarian) was 28.2 µM. It also gave a TGI (LOX IMVI melanoma) of 11.5 µM, a TGI (DU-145 prostate) of 30.3 µM and a TGI (A498 renal) of 36.7 µM. It also gave a TGI (ACHN renal) of 25.7 µM, a TGI (NCI-H522 lung) of 43.8 µM and a TGI (SNB-75 CNS) of 56.6 µM. It also gave a TGI (OVCAR-5 ovarian) of 50.9 µM.
